What was measured:
[1] = biological target: T1, human cloned 5-HT2B receptors (Homo sapiens, UniProt P41595); assay: Human cloned 5-HT2B cell-based functional assay (Fluo-4, CHO.K1 cells); conditions: inhibition of 5-HT response, CHO.K1 cells expressing cloned 5-HT2B, Fluo-4 AM
T1 construct: expressed in transfected cells; host or cells: CHO-K1 cells
Method: The following describes an in vitro functional assay using human cloned 5-HT2B receptors to determine the ability of compounds to block the receptor. CHO.K1 cells expressing cloned 5-HT2B receptor were maintained In Ultra-CHO medium containing 400 μg/ml of G418, 100 U/ml penicillin, 100 μg/ml streptomycin, 2.5 μg/ml fungizone, in 95/5% O2/CO2 at 37° C. Ultra-CHO medium additionally supplemented with 1% foetal bovine serum was used when seeding the cells and removed after 5 hours. Cells were plated in Costar 96 well white, clear-bottomed plate at a density of 50,000 cells per well and incubated for at least 24 hours in 95/5% O2/CO2 at 37° C. before running the assay. Media was removed from the wells and 200 μl of 4 μM Fluo-4 AM added, this was incubated in a Wallace Victor 2V workstation at 37° C. for 30 minutes. The Fluo-4 AM was then removed from the wells, which were then washed twice with 200 μl of buffer (HBSS without calcium/magnesium/phenol red, 20 mM HEPES, 1 mM Ca^2+, 1 mM Mg^2+, 2.5 mM probenecid, pH to 7.4), 180 μl of buffer or test compound was added to the well and incubated for 30 minutes. The Victor 2V injectors were used to inject 20 μl of 5-HT after obtaining 10 0.1-second baseline readings at 535 nm, followed by 150 readings. All test compounds were aliquoted in 100% DMSO at 10 mM and diluted to 1 mM in 50% DMSO, subsequent dilutions were made using buffer. Buffer was also used to dilute the 5-HT. Data were analysed using Microsoft Excel and GraphPad Prism, with the latter used to produce sigmoidal dose-response curves for each compound. The compound concentration that inhibited the 5-HT response by 50% was taken (IC50-M), and the results are shown in Table 3, as pIC50, being the negative log (to the base 10) of the measured IC50 values.

[2] = biological target: T2, cloned human 5-HT2C receptor (Homo sapiens, UniProt P28335); assay: Human 5-HT2C receptor binding assay ([3H]mesulergine, CHO-K1 membranes); conditions: displacement of [3H]mesulergine (1 nM), read-out: 5-HT2C pKi (converted)
T2 construct: purchased Euroscreen; host or cells: CHO-K1 cells
T2 sequence (P28335 33-458): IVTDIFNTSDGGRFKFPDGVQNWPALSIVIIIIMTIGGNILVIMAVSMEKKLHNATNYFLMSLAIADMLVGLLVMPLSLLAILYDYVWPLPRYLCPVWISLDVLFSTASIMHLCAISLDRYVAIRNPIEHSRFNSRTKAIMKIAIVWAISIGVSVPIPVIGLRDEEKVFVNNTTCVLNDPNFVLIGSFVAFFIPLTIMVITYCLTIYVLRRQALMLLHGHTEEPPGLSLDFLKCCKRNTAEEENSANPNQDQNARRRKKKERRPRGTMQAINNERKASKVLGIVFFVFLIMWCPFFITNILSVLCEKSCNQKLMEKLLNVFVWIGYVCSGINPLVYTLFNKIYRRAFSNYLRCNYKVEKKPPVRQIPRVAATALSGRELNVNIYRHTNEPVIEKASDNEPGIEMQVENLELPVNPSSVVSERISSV
Method: (§1) The binding affinity of ligands for human 5-HT2A and 5-HT2C receptors was determined using the following assay.
Membrane preparations from CHO-K1 cells expressing the cloned human 5-HT2C receptor were obtained (Euroscreen). The membranes were thawed rapidly and diluted in assay buffer containing Tris-HCl (50 mM, pH 7.7), ascorbic acid (0.1%) and pargyline (10 μM). The membranes were resuspended by homogenisation, prior to adding 6 μg of membranes to assay wells containing [^3H] mesulergine (1 nM), assay buffer (50 mM Tris at pH 7.7 and 0.1% ascorbic acid) containing pargyline (10 μM), and test compounds (1×10^−10 to 1×10^−4M). Non specific binding was determined in the presence of 100 μM mianserin. After 30 minutes incubation at 37° C., the assay mixture was filtered through a combination of GF-C and GF-B filters, pre-soaked in 1% bovine serum albumin, using a Brandel cell harvester, and were washed three times using ice cold Tris-HCl buffer (50 mM). Radioactivity retained on the filters was determined by liquid scintillation counting. For each test compound, the concentration that inhibited binding of [3H]mesulergine by 50% was determined using curve fitting software (Prism). Kd values (concentration of mesulergine required to occupy 50% of the receptor binding sites at equlibrium) determined from saturation binding studies were then used to calculate inhibition dissociation constants (Ki) using the following equation: […]

[3] = biological target: T3, cloned human 5-HT2A receptor (Homo sapiens, UniProt P28223); assay: Human 5-HT2A receptor binding assay ([3H]ketanserin, CHO-K1 membranes); conditions: displacement of [3H]ketanserin (1 nM), read-out: 5-HT2A pKi (converted)
T3 construct: purchased Euroscreen; host or cells: CHO-K1 cells
T3 sequence (P28223 whole entry): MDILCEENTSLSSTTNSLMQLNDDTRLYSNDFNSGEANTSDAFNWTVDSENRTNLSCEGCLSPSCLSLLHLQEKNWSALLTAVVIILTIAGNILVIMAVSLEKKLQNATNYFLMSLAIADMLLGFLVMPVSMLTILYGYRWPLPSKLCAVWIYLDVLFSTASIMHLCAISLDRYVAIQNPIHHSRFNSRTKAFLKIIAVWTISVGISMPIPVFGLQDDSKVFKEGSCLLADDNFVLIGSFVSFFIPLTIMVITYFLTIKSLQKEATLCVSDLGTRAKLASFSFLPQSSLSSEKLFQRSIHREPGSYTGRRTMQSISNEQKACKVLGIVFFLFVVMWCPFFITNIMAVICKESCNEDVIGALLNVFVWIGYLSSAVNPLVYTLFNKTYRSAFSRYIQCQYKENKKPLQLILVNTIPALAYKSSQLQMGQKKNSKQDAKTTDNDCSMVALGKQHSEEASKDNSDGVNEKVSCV
Method: as §1
Membrane preparations from CHO-K1 cells expressing the cloned human 5-HT2A receptor were obtained (Euroscreen). The membranes were thawed rapidly and diluted in assay buffer containing Tris-HCl (50 mM, pH 7.7). The membranes were resuspended by homogenisation, prior to adding 15 μg of membranes to assay wells containing [3H] ketanserin (1 nM), assay buffer (50 mM Tris at pH 7.4) containing pargyline (10 μM), and test compounds (1×10^−10 to 1×10^−4M). Non specific binding was determined in the presence of 100 μM mianserin. After 15 minutes incubation at 37° C., the assay mixture was filtered through a combination of GF-C and GF-B filters, pre-soaked in 0.05% Brij, using a Brandel cell harvester, and were washed three times using ice cold Tris-HCl buffer (50 mM). Radioactivity retained on the filters was determined by liquid scintillation counting. For each test compound, the concentration that inhibited binding of [^3H]ketanserin by 50% was determined using curve fitting software (Prism). Kd values (concentration of ketanserin required to occupy 50% of the receptor binding sites at equlibrium) determined from saturation binding studies were then used to calculate inhibition dissociation constants (Ki) using the following equation: […]

T1 sequence (P41595 whole entry): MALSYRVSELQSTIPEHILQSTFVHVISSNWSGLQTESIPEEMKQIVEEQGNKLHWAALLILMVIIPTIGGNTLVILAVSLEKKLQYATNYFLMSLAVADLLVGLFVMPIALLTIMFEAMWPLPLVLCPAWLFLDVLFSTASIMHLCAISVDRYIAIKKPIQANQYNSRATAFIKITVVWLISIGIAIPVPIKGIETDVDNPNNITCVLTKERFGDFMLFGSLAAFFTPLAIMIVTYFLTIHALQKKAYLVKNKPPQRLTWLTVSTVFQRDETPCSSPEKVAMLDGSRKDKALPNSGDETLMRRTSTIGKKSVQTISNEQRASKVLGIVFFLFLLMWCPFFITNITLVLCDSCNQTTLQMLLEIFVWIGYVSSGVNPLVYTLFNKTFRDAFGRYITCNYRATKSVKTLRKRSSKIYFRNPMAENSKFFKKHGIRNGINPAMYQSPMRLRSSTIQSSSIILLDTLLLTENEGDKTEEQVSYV

Structure (SMILES)	IC50 [1] [µM]	Ki [2] [µM]	Ki [3] [µM]
Cc1ccc2ccccc2c1-c1coc(N)n1 [Compound 6, 2-amino-4-(2′-methylnaphth-1-yl)oxazole]	< 0.1	> 1	> 1
Nc1nc(-c2cccc3ccccc23)co1 [Compound 1, 2-amino-4-(naphth-1-yl)oxazole]	< 0.1	> 1	> 10
COc1ccc2ccccc2c1-c1coc(N)n1 [Compound 17, 4-(2-methoxy-naphthalen-1-yl)-oxazol-2-ylamine]	< 0.01	> 0.1	> 1
CC(C)c1nc(N)oc1-c1cccc2ccccc12 [Compound 7, 2-amino-4-isopropyl-5-(naphth-1-yl)oxazole]	< 0.01	> 1	> 0.1
CC(C)c1nc(N)oc1-c1ccc(F)c2ccccc12 [Compound 31, 2-amino-5-(4′-fluoronaphth-1-yl)-4-isopropyloxazole]	< 0.01	> 1	> 1

Reference: patent US7429607B2, “5-HT2B receptor antagonists” (Asterand UK Limited, priority 2002, dated 2008)
